Laboratory results: patent publication US20080038276A1, “INHIBITORS OF PLASMA KALLIKREIN” (Activesite Pharmaceuticals, Inc., priority 2006, published 2008)
Square brackets hold non-standard residues; d marks the D form. * marks the point of attachment. CH2Cl = ClC*

B1: plasmin: exogenous plasmin added to plasma, mimicking a fibrinolytic setting (protein, UniProt P00747 20-580; P00747 581-810, looked up)
Plasmin heavy chain A: EPLDDYVNTQGASLFSVTKKQLGAGSIEECAAKCEEDEEFTCRAFQYHSKEQQCVIMAENRKSSIIIRMRDVVLFEKKVYLSECKTGNGKNYRGTMSKTKNGITCQKWSSTSPHRPRFSPATHPSEGLEENYCRNPDNDPQGPWCYTTDPEKRYDYCDILECEEECMHCSGENYDGKISKTMSGLECQAWDSQSPHAHGYIPSKFPNKNLKKNYCRNPDRELRPWCFTTDPNKRWELCDIPRCTTPPPSSGPTYQCLKGTGENYRGNVAVTVSGHTCQHWSAQTPHTHNRTPENFPCKNLDENYCRNPDGKRAPWCHTTNSQVRWEYCKIPSCDSSPVSTEQLAPTAPPELTPVVQDCYHGDGQSYRGTSSTTTTGKKCQSWSSMTPHRHQKTPENYPNAGLTMNYCRNPDADKGPWCFTTDPSVRWEYCNLKKCSGTEASVVAPPPVVLLPDVETPSEEDCMFGNGKGYRGKRATTVTGTPCQDWAAQEPHRHSIFTPETNPRAGLEKNYCRNPDGDVGGPWCYTTNPRKLYDYCDVPQCAAPSFDCGKPQVEPKKCPGR
Plasmin light chain B: VVGGCVAHPHSWPWQVSLRTRFGMHFCGGTLISPEWVLTAAHCLEKSPRPSSYKVILGAHQEVNLEPHVQEIEVSRLFLEPTRKDIALLKLSSPAVITDKVIPACLPSPNYVVADRTECFITGWGETQGTFGAGLLKEAQLPVIENKVCNRYEFLNGRVQSTELCAGHLAGGTDSCQGDSGGPLVCFEKDKYILQGVTSWGLGCARPNKPGVYVRVSRFVTWIEGVMRNN
modifications: Plasmin
notes: exogenous plasmin added to plasma, mimicking a fibrinolytic setting

biological target: T1, Human plasma kallikrein (PK) (Homo sapiens, UniProt P03952); experiment: Inhibition of human plasma kallikrein amidolytic activity (H-D-Pro-Phe-Arg-pNA cleavage, A405); format: biochemical; conditions: PK Kiapp, apparent inhibition constant; 1 nM PK, pH 7.5
T1 construct: purchased Haemtech Technologies (Essex Junction, Vt.)
T1 sequence (P03952 391-638 limits assumed): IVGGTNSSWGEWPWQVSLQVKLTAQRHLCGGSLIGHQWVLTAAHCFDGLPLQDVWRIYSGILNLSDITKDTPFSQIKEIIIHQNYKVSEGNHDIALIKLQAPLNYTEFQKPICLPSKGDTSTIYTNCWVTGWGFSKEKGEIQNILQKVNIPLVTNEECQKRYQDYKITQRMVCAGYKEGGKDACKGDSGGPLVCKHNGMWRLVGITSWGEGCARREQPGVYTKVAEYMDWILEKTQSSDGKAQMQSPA
T1 sequence (P03952 20-390 partner limits assumed): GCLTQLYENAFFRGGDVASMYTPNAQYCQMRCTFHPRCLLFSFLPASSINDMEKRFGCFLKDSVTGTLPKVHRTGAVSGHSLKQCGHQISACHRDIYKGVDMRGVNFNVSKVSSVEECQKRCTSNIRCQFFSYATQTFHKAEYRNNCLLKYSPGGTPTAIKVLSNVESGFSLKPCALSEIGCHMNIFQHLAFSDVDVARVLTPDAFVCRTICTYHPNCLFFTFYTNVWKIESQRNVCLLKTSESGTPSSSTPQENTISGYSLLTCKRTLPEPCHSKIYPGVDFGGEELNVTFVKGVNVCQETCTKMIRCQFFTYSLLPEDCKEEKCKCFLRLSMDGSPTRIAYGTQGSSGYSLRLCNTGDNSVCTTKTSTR
Procedure: Human plasma kallikrein (PK) was obtained from Haemtech Technologies (Essex Junction, Vt.). The enzymatic activity of PK was assayed using the synthetic peptide substrate H-D-Pro-Phe-Arg-pNA (Bachem, Inc., Switzerland) with the cleavage of the substrate by the enzyme resulting in an increase in A405, measured using a Molecular Devices Vmax Kinetic Microplate Reader. The uninhibited (control) activity of PK was determined by adding 190 μl of PK solution (1 nM in 0.05 M HEPES, pH 7.5, 0.01% Triton X-100) to 10 μl of H-D-Pro-Phe-Arg-pNA (2 mM in DMSO) in individual microtiter plate wells, mixed immediately by shaking, and the rate of increase in A405 determined over 120-180 sec. In parallel, compounds of the present invention were mixed in separate wells with the synthetic substrate to attain final concentrations of between 0.01-10 μM in the final 200 μl reaction mixture, and the reaction initiated by the addition of 190 μl of the PK solution.
The highest concentration of either compound tested was 10 μM.

Molecule `N=C(N)c1ccc(CNC(=O)c2cn(Cc3ccccc3)c3ccccc23)cc1` [ASP-381, 1-Benzyl-1H-indole-3-carboxylic acid 4-carbamimidoyl-benzylamide] has a Ki of 0.24 µM.

same assay, conditions: Table 4 inhibition constants; read-out: Ki

Compared with `N=C(N)c1ccc(CNC(=O)c2cn(Cc3ccccc3)c3ccccc23)cc1` [compound 1], `N=C(N)c1ccc(CNC(=O)c2cn(S(=O)(=O)c3ccccc3)c3ccccc23)cc1` (single isomer, unassigned) [compound 2] is 2.7-fold lower in Ki: 0.08 µM for the first, 0.03 µM for the second.

Going from `N=C(N)c1ccc(CNC(=O)c2cnn(Cc3ccccc3)c2)cc1` (single isomer, unassigned) [compound 3] to `N=C(N)c1ccc(CNC(=O)c2cnn(-c3ccccc3)c2)cc1` [compound 4], the Ki rises from 0.15 µM to 1 µM (6.7-fold).

same assay, conditions: apparent inhibition constant; 1 nM PK, pH 7.5; read-out: PK Kiapp

`N=C(N)c1ccc(CNC(=O)c2c[nH]c3ccccc23)cc1` [ASP-493, 1H-Indole-3-carboxylic acid 4-carbamimidoyl-benzylamide] and `N=C(N)c1ccc(CNC(=O)c2csc3ccccc23)cc1` [ASP-491, Benzo[b]thiophene-3-carboxylic acid 4-carbamimidoyl-benzylamide] are within 1.5-fold of each other in Ki: 2.45 µM for the first, 2.11 µM for the second.

Compared with `N=C(N)c1ccc(CNC(=O)c2cc3ccccc3s2)cc1` [ASP-486, Benzo[b]thiophene-2-carboxylic acid 4-carbamimidoyl-benzylamide], `N=C(N)c1ccc(CNC(=O)c2cc3ccccc3[nH]2)cc1` [ASP-484, 1H-Indole-2-carboxylic acid 4-carbamimidoyl-benzylamide] is 1.6-fold higher in Ki: 1.57 µM for the first, 2.52 µM for the second.

Going from `N=C(N)c1ccc(CNC(=O)c2cnn(Cc3ccccc3Cl)c2)cc1` [ASP-582, 1-(2-Chloro-benzyl)-1H-pyrazole-4-carboxylic acid 4-carbamimidoyl-benzylamide] to `N=C(N)c1ccc(CNC(=O)c2cnn(-c3ccccc3)c2)cc1` [ASP-445, 1-Phenyl-1H-pyrazole-4-carboxylic acid 4-carbamimidoyl-benzylamide], the Ki rises from 0.47 µM to 1.43 µM (3-fold). The first binds more tightly here.

First: Cc1nn(Cc2c(Cl)cccc2Cl)c(Cl)c1C(=O)NCc1ccc(C(=N)N)cc1 [ASP-579, 5-Chloro-1-(2,6-dichloro-benzyl)-3-methyl-1H-pyrazole-4-carboxylic acid 4-carbamimidoyl-benzylamide]
Second: Cc1nn(Cc2ccc(F)cc2)c(Cl)c1C(=O)NCc1ccc(C(=N)N)cc1 [ASP-583, 5-Chloro-1-(4-fluoro-benzyl)-3-methyl-1H-pyrazole-4-carboxylic acid 4-carbamimidoyl-benzylamide]
The Ki of the first is 2-fold lower: 1.19 µM for the first, 2.38 µM for the second.

Compared with `N=C(N)c1ccc(CNC(=O)c2cn(S(=O)(=O)c3ccccc3)c3ccccc23)cc1` [ASP-383, 1-Benzenesulfonyl-1H-indole-3-carboxylic acid 4-carbamimidoyl-benzylamide], `N=C(N)c1ccc(CNC(=O)c2ccc(-c3ccccc3)s2)cc1` [ASP-523, 5-Phenyl-thiophene-2-carboxylic acid 4-carbamimidoyl-benzylamide] is 45-fold higher in Ki: 0.17 µM for the first, 7.66 µM for the second. The first binds more tightly here.

`Cc1nn(Cc2ccccc2Cl)c(C)c1C(=O)NCc1ccc(C(=N)N)cc1` [ASP-578, 1-(2-Chloro-benzyl)-3,5-dimethyl-1H-pyrazole-4-carboxylic acid 4-carbamimidoyl-benzylamide] and `Cc1nn(Cc2ccccc2)c(C)c1C(=O)NCc1ccc(C(=N)N)cc1` [ASP-577, 1-Benzyl-3,5-dimethyl-1H-pyrazole-4-carboxylic acid 4-carbamimidoyl-benzylamide] are within 1.5-fold of each other in Ki: 1.64 µM for the first, 1.13 µM for the second.

`Cc1cc(C(=O)NCc2ccc(C(=N)N)cc2)c(C)n1-c1ccccc1` [ASP-576, 2,5-Dimethyl-1-phenyl-1H-pyrrole-3-carboxylic acid 4-carbamimidoyl-benzylamide] and `Cc1cc(C(=O)NCc2ccc(C(=N)N)cc2)c(C)n1Cc1ccccc1` [ASP-580, 1-Benzyl-2,5-dimethyl-1H-pyrrole-3-carboxylic acid 4-carbamimidoyl-benzylamide] are within 1.5-fold of each other in Ki: 0.04 µM for the first, 0.03 µM for the second.

Going from `N=C(N)c1ccc(CNC(=O)c2cn(Cc3ccc(F)cc3)nn2)cc1` [ASP-559, 1-(4-Fluoro-benzyl)-1H-1,2,3-triazole-4-carboxylic acid 4-carbamimidoyl-benzylamide] to `Cc1c(C(=O)NCc2ccc(C(=N)N)cc2)nnn1Cc1ccc(Br)cc1` [ASP-558, 1-(4-Bromo-benzyl)-5-methyl-1H-1,2,3-triazole-4-carboxylic acid 4-carbamimidoyl-benzylamide], the Ki falls from 8.09 µM to 2.62 µM (3.1-fold). The second binds more tightly here.

First: Cc1cc(C(=O)NCc2ccc(C(=N)N)cc2)c(C)n1CC(F)(F)F [ASP-581, 2,5-Dimethyl-1-(2,2,2-trifluoro-ethyl)-1H-pyrrole-3-carboxylic acid 4-carbamimidoyl-benzylamide]
Second: Cc1oc(-c2ccccc2)cc1C(=O)NCc1ccc(C(=N)N)cc1 [ASP-466, 2-Methyl-5-phenyl-furan-3-carboxylic acid 4-carbamimidoyl-benzylamide]
The Ki of the first is 3.1-fold lower: 0.41 µM for the first, 1.29 µM for the second. The first binds more tightly here.

First: Cc1nc(-c2ccccc2)sc1C(=O)NCc1ccc(C(=N)N)cc1 [ASP-373, 4-Methyl-2-phenyl-thiazole-5-carboxylic acid 4-carbamimidoyl-benzylamide]
Second: N=C(N)c1ccc(CNC(=O)c2cc3ccccc3o2)cc1 [ASP-485, Benzofuran-2-carboxylic acid 4-carbamimidoyl-benzylamide]
The Ki of the first is 10-fold higher: 8.87 µM for the first, 0.87 µM for the second. The second binds more tightly here.

`N=C(N)c1ccc(CNC(=O)c2ccc(-c3ccccn3)s2)cc1` [ASP-525, 5-Pyridin-2-yl-thiophene-2-carboxylic acid 4-carbamimidoyl-benzylamide] gave a Ki of 20.6 µM.

tested on: LPS or bacterial induced sepsis in animals; experiment: not given; conditions: in vivo; cited from earlier work

In the case of “H-[dP]-Phe-Arg-CH2Cl [reference compound]”, the “vascular permeability in multiple organs and lesions” value is given as “reduce”.

tested on: plasmin-activated coagulation in plasma; experiment: Plasmin-activated coagulation of plasma (plasmin + 6.25% Actin FS), time to coagulation; design: species or system human; conditions: 100 nM plasmin, 50% plasma, 6.25% Actin FS; control 1.00
Procedure: In the clotting paradigm utilized in Example 3, plasma is mixed 1:1 with commercially formulated Actin FS. Thus, 50% (v/v) Actin FS is the maximum amount of activator that can be added while maintaining the amount of plasma constant at 50% of the incubation mixture. Since the clotting time in normal plasma is dependent on the amount of Actin FS present in the incubation mixture, these conditions would by definition lead to the shortest time to coagulation mediated by the intrinsic pathway in this paradigm. Lowering the amount of contact activator leads to a decrease in the amount of PK activated, thus reducing the amount of thrombin generated and slowing the time to coagulation (data not shown). Therefore, in order to determine whether addition of exogenous plasmin (mimicking a fibrinolytic setting) can shorten time to coagulation, the amount of Actin FS reagent added to the plasma (kept constant at 50% of the final incubation mixture) was lowered so as to attain 6.25% (final v/v).
This provides direct evidence that plasmin can have a thrombogenic effect when added to plasma in the presence of a small amount of contact activator.
The role for PK was established by evaluating deficiencies in PK, as well as by using two specific inhibitors of the enzymes. In order to determine whether blocking PK via a specific monoclonal antibody (MAb) would also be effective in inhibiting coagulation in either of the two paradigms described here, and thus provide additional validation for the invention, MAb 13G11, which has been previously characterized as being specific for PK (Veloso et al, (1987) Blood, 70, 1053-1062), was tested in each of the coagulation paradigms described in Examples 2 and 3. MAb 13G11 (obtained from GeneTex, San Antonio, Tex.) was added at a final concentration of 0.036 mg/ml in the 50% plasma—50% activator mix in each paradigm. This calculates to an approximately 2-fold molar excess over the amount of PK that would be present in the plasma—activator mixture, based on the literature reference of Veloso et al, (1987), Blood, 70, 1053-1062. Control samples were treated with 0.036 mg/ml of an isotype-matched control IgG1 (also obtained from GeneTex). When plasma was activated using 50% Actin FS (FIG. 5), MAb 13G11 prolonged time to coagulation by 100% (45% of the maximal effect obtained with PK-deficient plasma), and, when plasma was activated using 200 nM plasmin+6.25% Actin FS (FIG. 6), prolonged time to coagulation by 32% (40% of the maximal effect obtained with PK-deficient plasma).

With B1 the relative coagulation time was 0.74.

same assay, conditions: 200 nM plasmin, 50% plasma, 6.25% Actin FS; control 1.00

B1 showed a relative coagulation time of 0.65.

same assay, conditions: 200 nM plasmin, absence of any Actin FS

With B1 the “relative time to coagulation” value was 4.0.
